In ChEMBL document CHEMBL5465560, “Selectivity Literature for EUbOPEN Chemogenomic Library” (2024):

Legend:
[1] = target: T1, Dual specificity mitogen-activated protein kinase kinase 3 (Homo sapiens) (UniProt P46734); experiment: Selectivity interaction (LanthaScreen Eu Kinase Binding Assay) EUB0001632a MAP2K3; conditions: at 10 µM
T1 sequence (whole entry): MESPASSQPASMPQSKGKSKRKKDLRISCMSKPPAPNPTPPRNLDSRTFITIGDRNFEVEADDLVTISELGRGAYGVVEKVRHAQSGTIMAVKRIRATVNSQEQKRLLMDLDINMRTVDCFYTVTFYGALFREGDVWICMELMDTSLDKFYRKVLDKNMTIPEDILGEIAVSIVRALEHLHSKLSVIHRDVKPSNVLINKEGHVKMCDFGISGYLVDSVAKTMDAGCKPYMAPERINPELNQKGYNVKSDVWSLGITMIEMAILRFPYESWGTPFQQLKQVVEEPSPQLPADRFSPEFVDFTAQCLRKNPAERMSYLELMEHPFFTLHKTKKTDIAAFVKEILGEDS

[2] = target: Neuropeptide Y receptor type 1 (Homo sapiens, UniProt P25929); experiment: Selectivity interaction (Neuropeptide Y Y1 receptor binding assay, human recombinant ) EUB0000877a NPY1R
[3] = target: Macrophage-stimulating protein receptor (Homo sapiens, UniProt Q04912); experiment: Selectivity interaction (Kinase panel (Invitrogen)) EUB0000639a MST1R; conditions: at 200 nM
[4] = test system: Epidermal growth factor receptor (Homo sapiens), P00533 [T790M]; experiment: (§1) Selectivity interaction (KinomeScan (DiscoverX)) EUB0000045b EGFR
[5] = test system: Epidermal growth factor receptor (Homo sapiens), P00533 [G719C]; experiment: as §1
[6] = test system: Epidermal growth factor receptor (Homo sapiens), P00533 [L858R]; experiment: as §1
[7] = test system: Epidermal growth factor receptor (Homo sapiens), P00533 [L861Q]; experiment: as §1
[8] = test system: Epidermal growth factor receptor (Homo sapiens), P00533 [UNDEFINED MUTATION]; experiment: as §1
[9] = test system: Epidermal growth factor receptor (Homo sapiens), P00533 [G719S]; experiment: as §1
[10] = target: Epidermal growth factor receptor (Homo sapiens, UniProt P00533); experiment: as §1
[11] = test system: Epidermal growth factor receptor (Homo sapiens), P00533 [L858R,T790M]; experiment: as §1
[12] = target: RAC-alpha serine/threonine-protein kinase (Homo sapiens, UniProt P31749); experiment: Selectivity interaction (KinomeScan (DiscoverX)) EUB0000092b AKT1; conditions: at 10 µM
[13] = target: T2, Serine/threonine-protein kinase ULK1 (Homo sapiens) (UniProt O75385); experiment: Selectivity interaction (KinomeScan (DiscoverX)) EUB0000092b ULK1; conditions: at 10 µM
T2 sequence (whole entry): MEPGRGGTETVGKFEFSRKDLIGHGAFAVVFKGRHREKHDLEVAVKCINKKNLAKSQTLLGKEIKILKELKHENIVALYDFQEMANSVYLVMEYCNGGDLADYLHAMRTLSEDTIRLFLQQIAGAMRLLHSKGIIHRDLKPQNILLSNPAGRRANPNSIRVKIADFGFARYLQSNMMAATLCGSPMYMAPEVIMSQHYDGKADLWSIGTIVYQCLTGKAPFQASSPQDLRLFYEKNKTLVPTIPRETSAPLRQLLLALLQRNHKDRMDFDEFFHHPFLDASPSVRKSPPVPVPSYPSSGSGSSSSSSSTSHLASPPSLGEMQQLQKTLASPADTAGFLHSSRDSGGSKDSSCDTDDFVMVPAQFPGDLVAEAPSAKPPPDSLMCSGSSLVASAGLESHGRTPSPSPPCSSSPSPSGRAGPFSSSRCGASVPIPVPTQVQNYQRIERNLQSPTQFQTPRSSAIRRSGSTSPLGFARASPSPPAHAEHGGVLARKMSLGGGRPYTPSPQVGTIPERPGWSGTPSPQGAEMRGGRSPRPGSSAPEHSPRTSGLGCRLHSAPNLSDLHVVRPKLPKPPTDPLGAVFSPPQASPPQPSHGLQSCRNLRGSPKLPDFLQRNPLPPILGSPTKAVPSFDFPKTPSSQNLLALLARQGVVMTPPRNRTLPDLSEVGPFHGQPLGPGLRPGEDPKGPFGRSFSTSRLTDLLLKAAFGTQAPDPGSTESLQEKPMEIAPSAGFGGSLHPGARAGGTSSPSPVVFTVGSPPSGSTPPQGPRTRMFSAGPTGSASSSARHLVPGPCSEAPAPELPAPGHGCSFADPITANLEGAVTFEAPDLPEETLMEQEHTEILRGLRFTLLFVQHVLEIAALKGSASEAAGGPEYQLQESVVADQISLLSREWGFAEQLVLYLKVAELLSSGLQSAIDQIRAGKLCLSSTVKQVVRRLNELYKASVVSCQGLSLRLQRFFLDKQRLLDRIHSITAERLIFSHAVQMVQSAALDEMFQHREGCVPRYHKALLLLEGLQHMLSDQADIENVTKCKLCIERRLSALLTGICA

[14] = Selectivity interaction (KinomeScan (DiscoverX)) EUB0000092b CDPK1; conditions: at 10 µM
[15] = target: T3, Myotonin-protein kinase (Homo sapiens) (UniProt Q09013); experiment: Selectivity interaction (KinomeScan (DiscoverX)) EUB0000618a DMPK; conditions: at 10 µM
T3 sequence (whole entry): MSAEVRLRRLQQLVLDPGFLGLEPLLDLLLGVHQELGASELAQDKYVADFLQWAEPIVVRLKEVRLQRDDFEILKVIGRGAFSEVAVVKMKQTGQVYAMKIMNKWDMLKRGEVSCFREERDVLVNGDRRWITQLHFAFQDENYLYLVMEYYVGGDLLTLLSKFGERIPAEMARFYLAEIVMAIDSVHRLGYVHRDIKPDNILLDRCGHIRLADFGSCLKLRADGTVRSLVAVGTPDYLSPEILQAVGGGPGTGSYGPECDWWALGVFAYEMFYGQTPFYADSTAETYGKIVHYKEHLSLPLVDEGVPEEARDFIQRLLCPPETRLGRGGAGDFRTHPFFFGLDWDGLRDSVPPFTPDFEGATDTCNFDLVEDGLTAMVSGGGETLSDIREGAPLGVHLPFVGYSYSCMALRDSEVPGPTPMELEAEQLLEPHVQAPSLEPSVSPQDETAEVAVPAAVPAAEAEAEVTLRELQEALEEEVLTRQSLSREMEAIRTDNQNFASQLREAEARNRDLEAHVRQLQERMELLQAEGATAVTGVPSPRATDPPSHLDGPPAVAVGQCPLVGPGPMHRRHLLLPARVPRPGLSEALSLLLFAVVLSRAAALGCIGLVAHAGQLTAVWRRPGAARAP

Chain of Epidermal growth factor receptor (Homo sapiens), P00533 [UNDEFINED MUTATION] (P00533 whole entry, looked up, stated change not applied): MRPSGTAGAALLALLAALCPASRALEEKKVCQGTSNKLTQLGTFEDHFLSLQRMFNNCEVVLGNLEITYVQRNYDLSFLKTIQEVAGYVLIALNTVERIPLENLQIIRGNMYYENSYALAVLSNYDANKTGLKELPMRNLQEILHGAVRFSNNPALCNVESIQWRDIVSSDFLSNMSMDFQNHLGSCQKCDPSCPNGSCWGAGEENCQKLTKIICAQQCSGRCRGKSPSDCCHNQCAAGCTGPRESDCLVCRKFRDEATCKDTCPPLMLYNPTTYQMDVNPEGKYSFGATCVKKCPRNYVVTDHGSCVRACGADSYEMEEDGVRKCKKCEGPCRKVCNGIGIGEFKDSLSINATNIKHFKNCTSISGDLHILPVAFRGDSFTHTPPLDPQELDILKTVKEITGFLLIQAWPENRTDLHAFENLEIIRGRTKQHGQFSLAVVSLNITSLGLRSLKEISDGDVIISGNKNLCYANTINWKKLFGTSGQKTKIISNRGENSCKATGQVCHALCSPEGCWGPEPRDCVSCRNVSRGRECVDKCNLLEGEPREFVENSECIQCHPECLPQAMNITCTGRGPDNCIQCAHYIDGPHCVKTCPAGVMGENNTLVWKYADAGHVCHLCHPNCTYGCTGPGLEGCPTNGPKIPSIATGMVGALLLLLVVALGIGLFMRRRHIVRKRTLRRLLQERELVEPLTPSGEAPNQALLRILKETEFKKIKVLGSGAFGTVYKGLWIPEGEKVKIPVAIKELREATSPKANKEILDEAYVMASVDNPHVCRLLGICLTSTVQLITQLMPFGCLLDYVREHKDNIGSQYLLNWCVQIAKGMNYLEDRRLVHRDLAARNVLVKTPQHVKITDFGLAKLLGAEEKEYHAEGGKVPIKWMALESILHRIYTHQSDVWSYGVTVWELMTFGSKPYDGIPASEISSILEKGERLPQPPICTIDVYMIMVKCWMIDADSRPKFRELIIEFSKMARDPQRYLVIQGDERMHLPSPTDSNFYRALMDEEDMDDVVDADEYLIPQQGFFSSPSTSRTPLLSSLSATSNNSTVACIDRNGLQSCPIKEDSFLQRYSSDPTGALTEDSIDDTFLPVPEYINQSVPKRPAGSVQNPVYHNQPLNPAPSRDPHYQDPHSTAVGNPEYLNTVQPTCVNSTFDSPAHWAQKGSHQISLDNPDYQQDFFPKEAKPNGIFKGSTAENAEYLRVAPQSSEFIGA
Chain of Epidermal growth factor receptor (P00533 whole entry): as the sequence (P00533 whole entry, looked up, stated change not applied) above
Chain of Epidermal growth factor receptor (Homo sapiens), P00533 [L858R] (P00533 whole entry L858R): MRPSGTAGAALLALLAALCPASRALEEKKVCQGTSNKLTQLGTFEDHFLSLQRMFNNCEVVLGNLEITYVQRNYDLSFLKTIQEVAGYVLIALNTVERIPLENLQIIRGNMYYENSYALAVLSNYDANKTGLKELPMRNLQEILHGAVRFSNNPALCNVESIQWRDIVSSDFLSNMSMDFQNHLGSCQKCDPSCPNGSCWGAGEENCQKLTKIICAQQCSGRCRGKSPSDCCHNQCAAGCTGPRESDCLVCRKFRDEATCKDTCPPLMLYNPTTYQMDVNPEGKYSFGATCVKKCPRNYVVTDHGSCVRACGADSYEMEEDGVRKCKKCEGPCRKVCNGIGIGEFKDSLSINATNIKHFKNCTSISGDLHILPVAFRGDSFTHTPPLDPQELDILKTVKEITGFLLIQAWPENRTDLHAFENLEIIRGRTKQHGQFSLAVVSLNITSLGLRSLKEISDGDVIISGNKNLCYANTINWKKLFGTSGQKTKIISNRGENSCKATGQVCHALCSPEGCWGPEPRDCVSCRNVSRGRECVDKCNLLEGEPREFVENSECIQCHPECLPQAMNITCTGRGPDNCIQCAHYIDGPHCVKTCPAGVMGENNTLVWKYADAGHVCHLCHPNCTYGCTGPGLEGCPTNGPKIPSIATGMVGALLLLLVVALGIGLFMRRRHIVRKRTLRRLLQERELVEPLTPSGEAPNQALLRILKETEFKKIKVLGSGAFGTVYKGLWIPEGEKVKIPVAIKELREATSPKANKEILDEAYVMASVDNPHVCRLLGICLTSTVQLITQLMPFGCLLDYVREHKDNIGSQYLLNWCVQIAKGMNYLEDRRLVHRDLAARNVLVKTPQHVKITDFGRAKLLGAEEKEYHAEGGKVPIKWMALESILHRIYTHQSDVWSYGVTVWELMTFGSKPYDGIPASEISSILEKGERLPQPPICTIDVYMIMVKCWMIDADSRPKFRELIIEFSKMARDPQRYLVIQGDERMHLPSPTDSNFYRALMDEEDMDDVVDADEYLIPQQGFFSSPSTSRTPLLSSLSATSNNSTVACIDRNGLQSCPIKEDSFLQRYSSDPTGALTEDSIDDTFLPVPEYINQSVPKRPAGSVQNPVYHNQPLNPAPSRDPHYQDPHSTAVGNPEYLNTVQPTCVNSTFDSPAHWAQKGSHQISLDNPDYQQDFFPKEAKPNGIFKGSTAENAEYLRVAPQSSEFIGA
Chain of Epidermal growth factor receptor (Homo sapiens), P00533 [L858R,T790M] (P00533 whole entry T790M/L858R, looked up): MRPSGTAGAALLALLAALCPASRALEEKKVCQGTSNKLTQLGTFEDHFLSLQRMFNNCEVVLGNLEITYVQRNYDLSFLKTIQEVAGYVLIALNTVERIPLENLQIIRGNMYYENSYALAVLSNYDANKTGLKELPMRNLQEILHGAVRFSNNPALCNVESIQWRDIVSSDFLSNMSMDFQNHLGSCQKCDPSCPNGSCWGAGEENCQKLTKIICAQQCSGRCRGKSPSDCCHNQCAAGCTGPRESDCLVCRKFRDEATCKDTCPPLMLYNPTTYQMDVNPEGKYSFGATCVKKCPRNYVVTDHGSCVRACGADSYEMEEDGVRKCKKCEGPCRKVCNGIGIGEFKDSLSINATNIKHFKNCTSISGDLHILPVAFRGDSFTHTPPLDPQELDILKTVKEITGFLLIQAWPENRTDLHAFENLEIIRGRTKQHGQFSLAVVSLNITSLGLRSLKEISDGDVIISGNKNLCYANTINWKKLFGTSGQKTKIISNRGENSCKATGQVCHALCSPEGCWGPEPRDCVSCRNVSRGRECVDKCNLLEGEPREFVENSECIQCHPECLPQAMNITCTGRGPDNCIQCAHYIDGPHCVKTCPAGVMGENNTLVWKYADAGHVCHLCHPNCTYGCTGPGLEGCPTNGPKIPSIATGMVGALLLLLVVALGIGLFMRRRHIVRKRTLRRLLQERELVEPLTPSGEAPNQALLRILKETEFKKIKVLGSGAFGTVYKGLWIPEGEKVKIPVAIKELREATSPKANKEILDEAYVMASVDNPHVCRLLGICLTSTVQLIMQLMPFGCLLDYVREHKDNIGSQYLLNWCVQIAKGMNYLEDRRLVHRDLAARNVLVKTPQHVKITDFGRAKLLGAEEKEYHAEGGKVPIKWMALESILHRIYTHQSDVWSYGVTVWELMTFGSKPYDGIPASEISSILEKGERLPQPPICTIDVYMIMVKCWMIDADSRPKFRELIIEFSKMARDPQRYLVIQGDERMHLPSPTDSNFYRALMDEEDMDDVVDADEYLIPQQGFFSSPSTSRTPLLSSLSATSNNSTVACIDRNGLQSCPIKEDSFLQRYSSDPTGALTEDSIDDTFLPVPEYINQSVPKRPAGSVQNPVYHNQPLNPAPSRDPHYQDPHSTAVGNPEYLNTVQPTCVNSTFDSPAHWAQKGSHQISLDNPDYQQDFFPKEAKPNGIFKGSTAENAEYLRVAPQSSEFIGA

Question: With `Cn1cc(-n2cnc3c(NCc4nc5cc(Cl)c(Cl)cc5[nH]4)nc(N4CCOCC4)nc32)cn1` as the compound, how does the % of inhibition [1] read?
Answer: -63.6%

Question: With `CCC(=O)N1CC[C@H](Nc2ncnc3c2CN(c2cnc(OC)c(C(F)(F)F)c2)CC3)C1` [LENIOLISIB] as the compound, how does the IC50 [2] read?
Answer: > 30 µM

Question: For `CC[C@@H]1[C@H](F)C(=O)N[C@@H]1COc1nccc2cc(C(N)=O)c(OC)cc12` [ZIMLOVISERTIB], which % of inhibition [3] is on record?
Answer: 12.6%

Question: Which % of control ([4]; at 1 µM) does the source give for `C=CC(=O)Nc1cc(-n2c(=O)ccc3cnc4ccc(-c5ccc(NS(C)(=O)=O)cc5)cc4c32)ccc1C` here?
Answer: 11%

Question: What about the % of control ([4]; at 10 µM) of the same compound?
Answer: 2.1%

Question: What about the % of control ([5]; at 1 µM) of the same compound?
Answer: 73%

Question: And the % of control ([5]; at 10 µM)?
Answer: 90%

Question: And the % of control ([6]; at 1 µM)?
Answer: 95%

Question: What about the % of control ([6]; at 10 µM) of the same compound?
Answer: 50%

Question: What about the % of control ([7]; at 1 µM) of the same compound?
Answer: 40%

Question: And the % of control ([7]; at 10 µM)?
Answer: 45%

Question: And the % of control ([8]; at 1 µM)?
Answer: 100%

Question: And the % of control ([8]; at 10 µM)?
Answer: 32%

Question: What about the % of control ([9]; at 1 µM) of the same compound?
Answer: 90%

Question: And the % of control ([9]; at 10 µM)?
Answer: 85%

Question: What about the % of control ([10]; at 1 µM) of the same compound?
Answer: 82%

Question: And the % of control ([10]; at 10 µM)?
Answer: 25%

Question: And the % of control ([11]; at 1 µM)?
Answer: 100%

Question: What about the % of control ([11]; at 10 µM) of the same compound?
Answer: 44%

Question: With `CCC(=O)N1CCN(c2ccc(-n3c(=O)ccc4cnc5ccc(-c6cnc7ccccc7c6)cc5c43)cc2C(F)(F)F)CC1` as the compound, how does the % of control [12] read?
Answer: 91%

Question: And the % of control [13]?
Answer: 100%

Question: And the % of control [14]?
Answer: 36%

Question: With `O[C@H]1CC[C@H](Nc2ncc3nc(Nc4c(F)cc(F)cc4F)n([C@H]4CCOC4)c3n2)CC1` as the compound, how does the % of control [15] read?
Answer: 100%
